# Reference: ChEMBL document CHEMBL1201862, “PubChem BioAssay data set” (2004)
# The source made the active and inactive calls.
# How the values were obtained:
# [1] = target: T1, Aryl hydrocarbon receptor (Homo sapiens, UniProt P35869); assay: Luminescence-based cell-based high throughput dose response assay for activators of the Aryl Hydrocarbon Receptor (AHR). [Related pubchem assays: 2796 (Primary screen (AHR activators in singlicate)), 2845 (Confirmation screen (AHR activators in triplicate)), 434939 (Counterscreen (PXR activators in triplicate)), 2804 (Summary (AHR activators))]; type: ADME
# T1 sequence (P35869 whole entry): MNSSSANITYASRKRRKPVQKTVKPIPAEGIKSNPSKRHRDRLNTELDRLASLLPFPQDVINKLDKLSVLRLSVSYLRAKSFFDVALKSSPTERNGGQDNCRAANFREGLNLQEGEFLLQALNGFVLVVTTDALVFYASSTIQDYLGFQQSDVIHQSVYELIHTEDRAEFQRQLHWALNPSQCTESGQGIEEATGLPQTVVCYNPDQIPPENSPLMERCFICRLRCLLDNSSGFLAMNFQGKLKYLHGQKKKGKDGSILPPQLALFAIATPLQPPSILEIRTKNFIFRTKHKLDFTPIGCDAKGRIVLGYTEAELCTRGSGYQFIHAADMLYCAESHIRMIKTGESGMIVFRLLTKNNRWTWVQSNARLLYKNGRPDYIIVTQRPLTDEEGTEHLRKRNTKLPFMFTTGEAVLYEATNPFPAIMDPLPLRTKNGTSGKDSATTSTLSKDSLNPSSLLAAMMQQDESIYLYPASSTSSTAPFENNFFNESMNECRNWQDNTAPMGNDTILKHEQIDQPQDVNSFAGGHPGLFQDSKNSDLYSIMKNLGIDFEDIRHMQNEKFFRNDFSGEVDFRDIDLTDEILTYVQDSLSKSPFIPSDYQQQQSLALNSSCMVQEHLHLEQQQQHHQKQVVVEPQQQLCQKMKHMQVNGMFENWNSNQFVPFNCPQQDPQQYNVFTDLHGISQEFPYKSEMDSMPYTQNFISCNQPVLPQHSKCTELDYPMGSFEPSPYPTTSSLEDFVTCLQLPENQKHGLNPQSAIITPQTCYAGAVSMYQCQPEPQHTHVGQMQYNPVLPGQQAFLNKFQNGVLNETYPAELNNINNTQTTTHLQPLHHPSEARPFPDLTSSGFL
# [2] = viability loss in THP-1 monocytes – THP-1 cells, cytotoxicity control for Vif-APOBEC3G degradation inhibitor project, dose response (AID 1117359); type: functional; settings: THP-1
# cells [3] = type: functional, cell-based
# H4 = assay: Luminescence Cell-Based Dose Response HTS to Identify Activators of 5'UTR Stem-Loop Driven Prion Protein mRNA Translation in H4 Neuroglioblastoma Cells. [Related pubchem assays: 1829 (Project Summary), 1814 (Primary HTS)]; type: functional; settings: Homo sapiens
# cells [4] = type: functional, cell-based; remark: listed apart in the source
# [5] = target: T2, Sentrin-specific protease 7 (Homo sapiens, UniProt Q9BQF6); type: functional;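 note: Luminescence-based dose-response confirmation of ultra-high-throughput screening hits, measuring inhibition of SENP7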
# T2 sequence (Q9BQF6 whole entry): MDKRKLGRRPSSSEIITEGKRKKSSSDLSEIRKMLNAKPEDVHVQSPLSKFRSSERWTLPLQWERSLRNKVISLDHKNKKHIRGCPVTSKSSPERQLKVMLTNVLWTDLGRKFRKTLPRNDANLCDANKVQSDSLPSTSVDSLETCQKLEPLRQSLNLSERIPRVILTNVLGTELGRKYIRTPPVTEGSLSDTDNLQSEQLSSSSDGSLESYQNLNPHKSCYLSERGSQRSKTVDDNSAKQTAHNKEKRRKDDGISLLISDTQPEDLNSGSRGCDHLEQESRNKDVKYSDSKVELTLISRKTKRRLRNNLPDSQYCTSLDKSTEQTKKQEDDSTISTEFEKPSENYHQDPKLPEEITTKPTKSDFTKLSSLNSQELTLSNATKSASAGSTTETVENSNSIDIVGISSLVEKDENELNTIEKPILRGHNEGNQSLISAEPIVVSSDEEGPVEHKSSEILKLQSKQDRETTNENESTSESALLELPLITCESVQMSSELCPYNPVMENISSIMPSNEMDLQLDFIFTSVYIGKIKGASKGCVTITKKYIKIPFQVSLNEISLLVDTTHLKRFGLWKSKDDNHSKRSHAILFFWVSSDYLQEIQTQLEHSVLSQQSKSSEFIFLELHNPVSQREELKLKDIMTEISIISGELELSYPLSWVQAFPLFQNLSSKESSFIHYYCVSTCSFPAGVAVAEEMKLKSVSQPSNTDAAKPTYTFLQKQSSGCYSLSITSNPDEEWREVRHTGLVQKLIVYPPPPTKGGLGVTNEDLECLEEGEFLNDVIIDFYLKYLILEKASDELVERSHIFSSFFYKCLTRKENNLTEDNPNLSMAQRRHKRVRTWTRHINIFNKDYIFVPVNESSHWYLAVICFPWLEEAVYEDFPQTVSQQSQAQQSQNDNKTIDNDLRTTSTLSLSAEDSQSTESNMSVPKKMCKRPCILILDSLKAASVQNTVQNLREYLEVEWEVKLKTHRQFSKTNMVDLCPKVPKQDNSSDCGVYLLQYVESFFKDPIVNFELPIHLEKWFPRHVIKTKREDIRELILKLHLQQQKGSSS
# Caspase-3 = target: T3, Caspase-3 (Homo sapiens, UniProt P42574); type: functional;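 note: Dose-response selectivity test against caspase-3 for candidate inhibitors of sentrin-specific proteases (SENPs)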
# T3 sequence (P42574 whole entry): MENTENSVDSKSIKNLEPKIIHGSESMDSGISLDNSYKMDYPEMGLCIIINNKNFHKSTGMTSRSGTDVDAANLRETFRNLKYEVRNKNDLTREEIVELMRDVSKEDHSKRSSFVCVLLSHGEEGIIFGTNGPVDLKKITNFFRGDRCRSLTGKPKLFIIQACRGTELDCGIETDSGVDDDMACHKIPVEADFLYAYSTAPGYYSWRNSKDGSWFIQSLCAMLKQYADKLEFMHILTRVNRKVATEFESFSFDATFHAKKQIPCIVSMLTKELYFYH
# [6] = Luminescence Cell-Based Dose Confirmation HTS to Identify Activators of 5'UTR Stem-Loop Driven Alpha-Synuclein mRNA Translation in H4 Neuroglioblastoma Cells. [Related pubchem assays: 1829 (Project Summary), 1814 (Primary HTS)]; type: functional
# Nonstructural protein 1 = Nonstructural protein 1 (Influenza A virus, UniProt Q194T2); type: functional, Influenza A virus (A/California/07/2009(H1N1))
# [7] = target: T4, Oxysterols receptor LXR-beta (Homo sapiens, UniProt P55055); type: functional, cell-based;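 note: Cell-based luminescence dose-response assay of agonist activity at LXR, run as a confirmatory counterscreen to a daf-12 agonist screen; HEK293 cells with Gal4-LXR fusion and GAL4-driven luciferase reporter; agonist potency from rising luciferase signal of a Gal4-LXR reporter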
# T4 sequence (P55055 whole entry): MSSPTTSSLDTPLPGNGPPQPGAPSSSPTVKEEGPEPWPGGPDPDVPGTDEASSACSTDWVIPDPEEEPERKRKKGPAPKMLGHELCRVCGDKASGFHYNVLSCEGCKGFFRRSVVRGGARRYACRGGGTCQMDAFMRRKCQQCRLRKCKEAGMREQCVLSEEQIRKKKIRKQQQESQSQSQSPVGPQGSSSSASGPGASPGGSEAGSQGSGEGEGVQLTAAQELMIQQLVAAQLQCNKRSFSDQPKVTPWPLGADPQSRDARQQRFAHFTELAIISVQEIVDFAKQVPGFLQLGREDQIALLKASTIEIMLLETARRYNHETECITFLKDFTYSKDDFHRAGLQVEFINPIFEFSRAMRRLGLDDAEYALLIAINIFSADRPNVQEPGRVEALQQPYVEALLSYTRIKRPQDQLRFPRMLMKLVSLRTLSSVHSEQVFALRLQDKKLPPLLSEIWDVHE
# cells [8] = assay: cells
# [9] = target: T5, Sentrin-specific protease 6 (Homo sapiens, UniProt Q9GZR1); type: functional;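 note: Luminescence-based dose-response confirmatory assay of SENP6 inhibition, following up an ultra-high-throughput screen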
# T5 sequence (Q9GZR1 whole entry): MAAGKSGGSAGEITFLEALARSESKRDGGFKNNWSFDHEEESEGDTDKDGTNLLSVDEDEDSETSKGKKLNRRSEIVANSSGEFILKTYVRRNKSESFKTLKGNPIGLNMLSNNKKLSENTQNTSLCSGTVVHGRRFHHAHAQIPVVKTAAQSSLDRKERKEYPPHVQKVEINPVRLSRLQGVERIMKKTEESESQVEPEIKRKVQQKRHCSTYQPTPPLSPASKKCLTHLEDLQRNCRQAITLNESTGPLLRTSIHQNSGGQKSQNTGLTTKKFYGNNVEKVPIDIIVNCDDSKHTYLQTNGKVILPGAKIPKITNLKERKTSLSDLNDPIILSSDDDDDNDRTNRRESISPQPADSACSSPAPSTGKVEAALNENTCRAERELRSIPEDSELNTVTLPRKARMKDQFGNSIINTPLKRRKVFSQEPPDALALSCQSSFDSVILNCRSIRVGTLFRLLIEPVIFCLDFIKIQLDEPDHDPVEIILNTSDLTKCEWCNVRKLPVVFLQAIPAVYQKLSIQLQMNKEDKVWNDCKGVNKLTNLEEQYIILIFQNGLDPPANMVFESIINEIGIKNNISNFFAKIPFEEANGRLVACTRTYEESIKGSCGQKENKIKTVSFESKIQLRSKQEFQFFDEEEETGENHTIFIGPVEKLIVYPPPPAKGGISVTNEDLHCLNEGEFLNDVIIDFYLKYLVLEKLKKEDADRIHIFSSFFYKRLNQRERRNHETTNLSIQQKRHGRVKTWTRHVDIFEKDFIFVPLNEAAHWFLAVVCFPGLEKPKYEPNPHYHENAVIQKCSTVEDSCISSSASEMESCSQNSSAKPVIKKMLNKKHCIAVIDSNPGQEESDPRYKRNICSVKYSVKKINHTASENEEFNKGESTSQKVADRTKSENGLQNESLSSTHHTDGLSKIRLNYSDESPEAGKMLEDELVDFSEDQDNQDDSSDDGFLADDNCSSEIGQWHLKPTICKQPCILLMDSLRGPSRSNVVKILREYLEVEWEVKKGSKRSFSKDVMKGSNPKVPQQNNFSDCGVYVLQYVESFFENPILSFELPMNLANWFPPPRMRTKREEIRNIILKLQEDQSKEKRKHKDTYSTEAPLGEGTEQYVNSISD
# [10] = Luminescence Cell-Based Dose Response HTS to Identify Activators of Luciferase Translation or Activity in H4 […] Cells. [Related pubchem assays: 1829 (Project Summary), 1814 (Primary HTS)]; type: functional
# [11] = target: T6, Sentrin-specific protease 8 (Homo sapiens, UniProt Q96LD8); type: functional;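 note: luminescence read-out of SENP8 inhibition, dose-response confirmation following an ultra-high-throughput screen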
# T6 sequence (Q96LD8 whole entry): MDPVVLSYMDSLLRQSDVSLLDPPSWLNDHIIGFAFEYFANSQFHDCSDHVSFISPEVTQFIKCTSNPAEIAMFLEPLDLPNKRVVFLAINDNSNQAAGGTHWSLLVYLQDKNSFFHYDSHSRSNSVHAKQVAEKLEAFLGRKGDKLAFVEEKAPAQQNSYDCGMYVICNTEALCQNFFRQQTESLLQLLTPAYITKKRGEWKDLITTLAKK
# cells [12] = assay: cells; remark: listed apart in the source
# [13] = NIH3T3 cell viability loss – ATP luminescence, mouse fibroblasts, counter-screen, dose response (AID 2010); type: functional, cell-based;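 note: cells exposed to compound for about 90 hours before reading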
# [14] = Trypanosoma cruzi growth suppression in host cells – NIH3T3 host cells, beta-gal luminescence, confirmation (AID 2044); type: functional, cell-based;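 note: intracellular parasites grown in NIH/3T3 mouse fibroblasts as host cells; luminescent beta-galactosidase reporter signal from transgenic T. cruzi replicating inside host cells; inhibitors lower the luminescence signal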
# Kallikrein-7 = Kallikrein-7 (Homo sapiens, UniProt P49862); assay: Fluorescence Intensity-based biochemical primary high throughput dose response assay to identify activators of kallikrein-7 (K7) zymogen.
# [15] = Dd2 parasite growth inhibition in erythrocytes – SYBR Green, dry powder samples, set 9, dose response (AID 1159568); type: functional, cell-based
# Kallikrein-7, sequence (P49862 whole entry): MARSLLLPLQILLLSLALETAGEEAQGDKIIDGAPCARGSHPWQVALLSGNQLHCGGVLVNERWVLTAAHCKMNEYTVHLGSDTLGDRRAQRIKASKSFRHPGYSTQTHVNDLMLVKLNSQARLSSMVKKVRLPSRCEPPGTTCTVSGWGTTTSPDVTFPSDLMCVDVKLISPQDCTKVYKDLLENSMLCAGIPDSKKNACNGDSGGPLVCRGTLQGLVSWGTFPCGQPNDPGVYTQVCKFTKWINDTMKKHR
# Nonstructural protein 1, sequence (Q194T2 whole entry, the tested form may be a part): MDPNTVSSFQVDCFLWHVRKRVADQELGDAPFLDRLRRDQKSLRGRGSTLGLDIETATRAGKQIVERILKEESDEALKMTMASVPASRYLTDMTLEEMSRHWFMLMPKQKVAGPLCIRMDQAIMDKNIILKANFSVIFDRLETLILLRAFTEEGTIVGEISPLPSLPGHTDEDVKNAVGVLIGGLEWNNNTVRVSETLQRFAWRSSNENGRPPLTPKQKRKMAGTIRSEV
smiles,measurement,setting,value
COc1cccc(C(=O)O/N=C(\N)c2ccc([N+](=O)[O-])cc2)c1,EC50,[1],3.57 µM (active)
Clc1ccc(CNc2ccc(CNc3nc[nH]n3)cc2)c(Cl)c1,CC50,[2],> 40 µM (active)
c1ccc(N=Nc2ccc3cccccc2-3)cc1,EC50,cells [3],6.29 µM (active)
same,EC50,H4,> 120 µM (not active)
same,EC50,cells [4],> 350 µM (not active)
same,IC50,[5],4.59 µM (active)
same,IC50,Caspase-3,24.5 µM (active)
same,EC50,[6],0.771 µM (active)
same,IC50,Nonstructural protein 1,10.8 µM (active)
same,EC50,[7],> 67.5 µM (inactive)
same,EC50,cells [8],> 67.5 µM (inactive)
same,IC50,[9],13.9 µM (active)
same,EC50,[10],1.1 µM (active)
same,IC50,[11],22.3 µM (active)
COc1ccc(C)cc1N=C(N)Nc1nc(C)cc(C)n1,EC50,[1],3.95 µM (active)
O=C(CCC1CCCN(Cc2ccc3c(c2)CCO3)C1)NCc1ccc(F)c(F)c1 (centres undefined),EC50,cells [12],0.011 µM (active)
same,EC50,[13],> 60 µM (not active)
same,EC50,[14],< 0.1 µM (active)
Cc1occc1C(=O)NC1CCCN(Cc2ccc(CC(C)C)cc2)C1 (centres undefined),EC50,cells [12],0.073 µM (active)
same,EC50,[13],> 60 µM (not active)
same,EC50,[14],< 0.1 µM (active)
O=C(CCc1c[nH]c2ccccc12)N1CCN(c2ccc(O)cc2)CC1,CC50,[2],> 40 µM (active)
CCOC(=O)c1c(C)nn(Cc2cccc(Cl)c2)c1N,CC50,[2],> 40 µM (active)
COc1ccc(NC(=O)c2ccc(NC(=O)CSc3nc(N)cc(O)n3)cc2)cc1,EC50,Kallikrein-7,22.4 µM (inactive)
COC(=O)C1=NN(c2ccccc2)C2C(=O)N(c3ccccc3OC)C(=O)C12 (centres undefined),EC50,Kallikrein-7,> 69.5 µM (inactive)
CCCc1cc(NCCOCCO)n2c(nc3ccccc32)c1C#N,EC50,Kallikrein-7,> 2.57 µM (active)
C[C@@H]1CN([C@H](C)CO)C(=O)c2ccccc2-c2ccccc2CO[C@H]1CN(C)C(=O)[C@H](Cc1ccccc1)N(C)C,AC50,[15],11.9 µM (active)
CCCC#Cc1ccc2c(c1)O[C@H](CN(C)Cc1ccccn1)[C@H](C)CN([C@@H](C)CO)S2(=O)=O,AC50,[15],3.94 µM (active)
CC(=O)Nc1cc(-c2ccc(Cl)cc2)n[nH]1,EC50,[1],1.8 µM (active)
